From US11639483B2, “Macrocyclic musk lactones and uses thereof” (PHYTO TECH CORP., priority 2021, dated 2023)

What was measured:
[1] = Appearance of musk in laundry detergent base; type: physicochemical
Protocol: Furthermore, musk lactone mixture A and other musks were also evaluated at two different loadings in laundry detergent base, as shown in Tables 38 and 39.

[2] = Appearance (solubility) of shampoo with musk, increased load; type: physicochemical
[3] = In use comparison of musk lactone mixture A with commercial musks in unperfumed laundry detergent, expert panel; set-up: species or system human; settings: for DAMP HED / DAMP STR: damp towel; for DAMP HED / DRY TWL 1 DAY HED / DRY TWL 7 DAYS HED / DRY TWL 15 DAYS HED / JAR HED: hedonic; for DAMP STR / DRY TWL 1 DAY STR / DRY TWL 7 DAYS STR / DRY TWL 15 DAYS STR / JAR STR: strength; for DRY TWL 1 DAY HED / DRY TWL 1 DAY STR: dry towel 1 day; for DRY TWL 7 DAYS HED / DRY TWL 7 DAYS STR: dry towel 7 days; for DRY TWL 15 DAYS HED / DRY TWL 15 DAYS STR: dry towel 15 days; for JAR STR: jar (point of purchase)
Protocol: Olfactive evaluations in use were performed by an expert panel. The range of materials evaluated was comprehensive, including musk products commercially available: Nitromusk, Polycyclic and Macrocyclic categories (Ambrettolide, Dihydro Ambrettolide, Scentolide, Muscone, Muscenone, Velvione, Musk Ambrette, Edenolide, Ethylene Brassylate, Galaxolide, Tonalide, Habanolide, Globanone, Macrolide, Oxalide T and others).
Evaluation samples were prepared using unperfumed laundry detergent (formulation example in Example 4, Table 10) at two different dosages: 10% Solution @ 0.8% (yielding 0.08% musk lactone mixture A) or 1.5% (yielding 0.15% musk lactone mixture A) driven by relative product performance in formulas and practical laboratory practices to execute the comparisons. The concentration of musk lactone mixture A in each evaluation was at the same concentration as the commercial musk.
The evaluations were performed in use stages: Jar (POP—Point of purchase), damp towel, Dry towel (1 day) and Storage Dry towel (7 days and 15 days). A five points scale was utilized, rating both strength and hedonic character: • Strength (STR) is rated as the overall scent power coming up from the substrate, due to physicochemical properties and commonly described as a combination of diffusion, bloom, body and or volume perceptions.

Odor strength on blotter = assay: Odor strength on blotter; set-up: species or system human
Source text: The results are presented below in Table 23a and Table 23b:

[4] = Fiber substantivity: odor strength on fabric treated with softener, 14 member-panel; set-up: species or system human; settings: 70% in isopropyl myristate dosed 0.25% w/w in softener; line dried 20 hours; 9 (very good) to 0 (very poor)
Protocol: Additionally, substantivity is evaluated olfactively by a panel after treating samples of substrate with a perfumed product, such as a fabric softener for cotton fabric or a shampoo for hair, containing the lactones described herein or other musk fragrances for comparison, according to standard procedures described below. Thus, the evaluation is essentially a relative odor intensity measurement. It is known that the perceived odor intensity of mixtures of perfume ingredients when evaluated as such is generally less than the sum of the perceived odors of the components. Thus, the perceived odor intensity of a 1:1 mixture of 2 of the components of the lactones described herein would be expected to be lower than the sum of the intensities of the separate components, i.e. in such mixtures odor suppression is generally found. On the contrary, the perceived odor intensity on substrate treated with the lactones described herein is at least equal to, but in most cases greater than the perceived intensity of substrate treated with equal amounts of the separate components.
Comparison of the fiber substantivity of single polycyclic musks and macrocyclic musks with musk mixtures is described herein. 70% Solutions in isopropyl myristate of the musks and musk mixtures to be tested are dosed at 0.25% w/w in a single Arquad fabric softener (GT 117B). The test is carried out by rinsing “6″×6” (weight: 16 g) cotton terry towel pieces at ambient temperature in a tergotometer according to the procedure below: • 3 g of fabric softener containing the test musk is added to 1 liter of water and agitated for one minute to disperse. The fabric piece is added and washed for 10 minutes with constant agitation at 100 rpm. On completion of the wash cycle, the pieces are hand wringed and line dried for 20 hours. • The cloths are assessed olfactively by a 14 member-panel. A 10-point scale is used running from 9 (very good) to 0 (very poor).

[5] = 0.04% Musk in laundry detergent base
[6] = 0.08% Musk in laundry detergent base

Molecule	Appearance [1, 5]	Appearance [1, 6]	DAMP HED ([3]; 10% IPM @0.8%)	DAMP STR ([3]; 10% IPM @0.8%)	DRY TWL 1 DAY HED ([3]; 10% IPM @0.8%)	DRY TWL 1 DAY STR ([3]; 10% IPM @0.8%)	DRY TWL 7 DAYS HED ([3]; 10% IPM @0.8%)	DRY TWL 7 DAYS STR ([3]; 10% IPM @0.8%)	DRY TWL 15 DAYS HED ([3]; 10% IPM @0.8%)	DRY TWL 15 DAYS STR ([3]; 10% IPM @0.8%)	JAR STR ([3]; 10% IPM @0.8%)	JAR HED ([3]; 10% IPM @0.8%)	further results
O=C1CCCCC/C=C\CCCCCCCCO1 [Ambrettolide]	Very cloudy	Phase separation	+ ((+) directionally superior)	−− ((−−) Significantly inferior)	−/− ((−) directionally inferior)	−/− ((−) directionally inferior)	−/− ((−) directionally inferior)	−/− ((−) directionally inferior)	−/− ((−) directionally inferior)	−/− ((−) directionally inferior)	−− ((−−) Significantly inferior)	− ((−) directionally inferior)	appearance of shampoo formula ([2]; 0.3% musk with 0.2% fruity floral fragrance oil): cloudy; appearance of shampoo formula ([2]; lower level of ambrettolide (0.2%)): remaining clear
O=C1CCCCCCCCCCCC(=O)OCCO1 [Ethylene Brassylate, ethylene brassilate]	Very cloudy	Phase separation	–	–	–	–	–	–	–	–	–	–	DAMP HED ([3]; 10% IPM @1.5%): −− /−− ((−−) Significantly inferior); DAMP STR ([3]; 10% IPM @1.5%): −− /−− ((−−) Significantly inferior); DRY TWL 1 DAY HED ([3]; 10% IPM @1.5%): −−/−− ((−−) Significantly inferior); DRY TWL 1 DAY STR ([3]; 10% IPM @1.5%): −−/−− ((−−) Significantly inferior); DRY TWL 7 DAYS HED ([3]; 10% IPM @1.5%): −−/−− ((−−) Significantly inferior); DRY TWL 7 DAYS STR ([3]; 10% IPM @1.5%): −−/−− ((−−) Significantly inferior); DRY TWL 15 DAYS HED ([3]; 10% IPM @1.5%): −−/−− ((−−) Significantly inferior); DRY TWL 15 DAYS STR ([3]; 10% IPM @1.5%): −−/−− ((−−) Significantly inferior); JAR STR ([3]; 10% IPM @1.5%): −−/−− ((−−) Significantly inferior); JAR HED ([3]; 10% IPM @1.5%): −−/−− ((−−) Significantly inferior)
CC1COCc2cc3c(cc21)C(C)(C)C(C)C3(C)C (stereo not drawn) [Galaxolide, galaxolide]	Very cloudy	Phase separation	–	–	–	–	–	–	–	–	–	–	ODOR STRENGTH ON BLOTTER, Rating (10-point scale) (Odor strength on blotter): 5.8; ODOR STRENGTH ON FABRIC TREATED WITH SOFTENER, Rating (10-point scale) [4]: 3.8; DAMP HED ([3]; 10% IPM @1.5%): −−/−− ((−−) Significantly inferior); DAMP STR ([3]; 10% IPM @1.5%): −−/−− ((−−) Significantly inferior); DRY TWL 1 DAY HED ([3]; 10% IPM @1.5%): −−/−− ((−−) Significantly inferior); DRY TWL 1 DAY STR ([3]; 10% IPM @1.5%): −−/−− ((−−) Significantly inferior); DRY TWL 7 DAYS HED ([3]; 10% IPM @1.5%): −−/−− ((−−) Significantly inferior); DRY TWL 7 DAYS STR ([3]; 10% IPM @1.5%): −−/−− ((−−) Significantly inferior); DRY TWL 15 DAYS HED ([3]; 10% IPM @1.5%): −−/−− ((−−) Significantly inferior); DRY TWL 15 DAYS STR ([3]; 10% IPM @1.5%): −−/−− ((−−) Significantly inferior); JAR STR ([3]; 10% IPM @1.5%): −−/−− ((−−) Significantly inferior); JAR HED ([3]; 10% IPM @1.5%): −−/−− ((−−) Significantly inferior)
O=C1CCCCCCCCCCCCCCCO1 [Hexadecanolide]	–	–	–	–	–	–	–	–	–	–	–	–	ODOR STRENGTH ON BLOTTER, Rating (10-point scale) (Odor strength on blotter): 5.8; ODOR STRENGTH ON FABRIC TREATED WITH SOFTENER, Rating (10-point scale) [4]: 4.8
CC1CC=CCCCCCCCCCC(=O)C1 (stereo not drawn) [MUSCENONE, muscenone]	–	–	++	+ ((+) directionally superior)	++/++	++/++	++/++	++/++	++/++	++/++	+ ((+) directionally superior)	++	–
C[C@@H]1CCCCCCCCCCCCC(=O)C1 [MUSCONE, Muscone]	–	–	+ ((+) directionally superior)	++	++	+ ((+) directionally superior)	++	+ ((+) directionally superior)	++	+ ((+) directionally superior)	++/++	++/++	–
O=C1CCCCCCCCOCCCCCCO1 [OXALIDE T, Oxalide T]	–	–	0/0 (comparable)	0/0 ((0) comparable)	0/0 (comparable)	0/0 ((0) comparable)	0/0 (comparable)	0/0 ((0) comparable)	0/0 (comparable)	0/0 ((0) comparable)	0 ((0) comparable)	− ((−) directionally inferior)	–
CC(=O)c1cc2c(cc1C)C(C)(C)C(C)CC2(C)C (stereo not drawn) [Tonalid, tonalid]	–	–	–	–	–	–	–	–	–	–	–	–	ODOR STRENGTH ON BLOTTER, Rating (10-point scale) (Odor strength on blotter): 8.2; ODOR STRENGTH ON FABRIC TREATED WITH SOFTENER, Rating (10-point scale) [4]: 7.2
O=C1CCCCCCCCCCCCCCCO1 [dihydroambrettolide]	Very cloudy	Phase separation	+ ((+) directionally superior)	0 ((0) comparable)	+ ((+) directionally superior)	0 ((0) comparable)	+ ((+) directionally superior)	0 ((0) comparable)	+ ((+) directionally superior)	0 ((0) comparable)	0 ((0) comparable)	− ((−) directionally inferior)	–
CC1CCCCCCCCCCCCC(=O)C1 (stereo not drawn) [l-muscone, muscone laevo]	Very cloudy	Phase separation	–	–	–	–	–	–	–	–	–	–	–
COc1c(C(C)(C)C)cc([N+](=O)[O-])c(C)c1[N+](=O)[O-] [musk ambrette]	–	–	− ((−) directionally inferior)	++	0 (comparable)	+ ((+) directionally superior)	0 (comparable)	+ ((+) directionally superior)	0 (comparable)	+ ((+) directionally superior)	++	− ((−) directionally inferior)	–
CC(=O)c1cc2c(cc1C)C(C)(C)C(C)CC2(C)C (stereo not drawn) [tonalide/fixolide]	Very cloudy	Phase separation	–	–	–	–	–	–	–	–	–	–	–
O=C1CCC/C=C\CCCCCCCCCC1 [velvione]	Very cloudy	Phase separation	+/+ ((+) directionally superior)	+/+ ((+) directionally superior)	++/++	++/++	++/++	++/++	++/++	++/++	+ ((+) directionally superior)	0 (comparable)	–
Edenolide	–	–	−/− ((−) directionally inferior)	−/− ((−) directionally inferior)	0/0 (comparable)	0/0 ((0) comparable)	0/0 (comparable)	0/0 ((0) comparable)	0/0 (comparable)	0/0 ((0) comparable)	0/0 ((0) comparable)	0/0 (comparable)	–
Scentolide	–	–	0 / 0 (comparable)	0 / 0 ((0) comparable)	−/− ((−) directionally inferior)	−/− ((−) directionally inferior)	−/− ((−) directionally inferior)	−/− ((−) directionally inferior)	−/− ((−) directionally inferior)	−/− ((−) directionally inferior)	0/0 ((0) comparable)	0/0 (comparable)	–
